# Experimental data as given in US11053204B2, “Pyrimidinyloxy benzene derivatives as herbicides” (FMC Corporation, priority 2015, dated 2021).
# How the values were obtained:
# Assay type in all cases: in vivo
# [1] = system: barnyardgrass (Echinochloa crus-galli); experiment: Test A preemergence, visual injury rating; details: Echinochloa crus-galli, pre-emergence, 240 h, 0 to 100 scale (0 no effect, 100 complete control), read-out: Barnyardgrass plant response rating
# Procedure, shortened: (§1)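 Scoring: eye-based comparison with untreated controls, 0 for no effect through 100 for complete control, at about day 10. Treatments: directed soil spray preemergence; foliar spray postemergence on 2–10 cm plants at the one- to two-leaf stage. Medium: loam soil with sand.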
# kochia (Kochia scoparia) [2] = experiment: Test A preemergence, visual injury rating; details: Bassia scoparia, pre-emergence, 240 h, 0 to 100 scale (0 no effect, 100 complete control), read-out: Kochia plant response rating
# Procedure, shortened: as §1
# [3] = system: barnyardgrass (Echinochloa crus-galli); experiment: Test C postemergence, plant response rating; details: Echinochloa crus-galli, post-emergence
# Procedure, shortened: (§2)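 Preemergence: seeds sown in loam–sand blend or silt loam and sprayed with test chemicals in a non-phytotoxic surfactant-containing solvent. Postemergence: potted plants at 2–18 cm (1–4-leaf stage) sprayed with the same formulation. After 13–15 d in greenhouse, visual rating versus controls on 0 (no effect) to 100 (complete control) scale.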
# [4] = system: blackgrass (Alopecurus myosuroides); experiment: Test C postemergence, plant response rating; details: Alopecurus myosuroides, post-emergence
# Procedure, shortened: as §2
# [5] = system: chickweed (common chickweed, Stellaria media); experiment: Test C postemergence, plant response rating; details: Stellaria media, post-emergence
# Procedure, shortened: as §2
# corn (Zea mays) = experiment: Test C postemergence, plant response rating; details: Zea mays, post-emergence
# Procedure, shortened: as §2
# [6] = system: crabgrass, large (large crabgrass, Digitaria sanguinalis); experiment: Test C postemergence, plant response rating; details: Digitaria sanguinalis, post-emergence
# Procedure, shortened: as §2
# [7] = system: foxtail, giant (giant foxtail, Setaria faberii); experiment: Test C postemergence, plant response rating; details: Setaria faberi, post-emergence
# Procedure, shortened: as §2
# kochia (Kochia scoparia) [8] = experiment: Test C postemergence, plant response rating; details: Bassia scoparia, post-emergence
# Procedure, shortened: as §2
# [9] = system: lambsquarters (Chenopodium album); experiment: Test C postemergence, plant response rating; details: Chenopodium album, post-emergence
# Procedure, shortened: as §2
# [10] = system: morningglory (Ipomoea coccinea); experiment: Test C postemergence, plant response rating; details: Ipomoea, post-emergence
# Procedure, shortened: as §2
# [11] = system: nutsedge, yellow (yellow nutsedge, Cyperus esculentus); experiment: Test C postemergence, plant response rating; details: Cyperus, post-emergence
# Procedure, shortened: as §2
# [12] = system: oat, wild (wild oat Avena fatua); experiment: Test C postemergence, plant response rating; details: Avena fatua, post-emergence
# Procedure, shortened: as §2
# [13] = system: oilseed rape (Brassica napus); experiment: Test C postemergence, plant response rating; details: Brassica napus, post-emergence
# Procedure, shortened: as §2
# [14] = system: ryegrass, Italian (Italian ryegrass, Lolium multiflorum); experiment: Test C postemergence, plant response rating; details: Lolium multiflorum, post-emergence
# Procedure, shortened: as §2
# soybean (Glycine max) = experiment: Test C postemergence, plant response rating; details: Glycine max, post-emergence
# Procedure, shortened: as §2
# [15] = system: wheat (winter wheat, Triticum aestivum); experiment: Test C postemergence, plant response rating; details: Triticum aestivum, post-emergence
# Procedure, shortened: as §2
# [16] = 62 g ai/ha, scale 0 to 100 (0 no effect, 100 complete control)
# [17] = 125 g ai/ha, scale 0 to 100 (0 no effect, 100 complete control)
structure (smiles),measurement,setting,value
"O=C(OCCCC(F)(F)F)c1c(Br)cccc1Oc1ncc(Cl)cn1 [Compound 20, 4,4,4-trifluorobutyl 2-bromo-6-[(5-chloro-2-pyrimidinyl)oxy]benzoate]",pest or weed control at 125 g/ha,[1]; 125 g ai/ha,100%
same,pest or weed control at 500 g/ha,[1]; 500 g ai/ha,100%
same,pest or weed control at 125 g/ha,kochia (Kochia scoparia) [2]; 125 g ai/ha,30%
same,pest or weed control at 500 g/ha,kochia (Kochia scoparia) [2]; 500 g ai/ha,100%
same,pest or weed control at 16 g/ha,"[3]; 16 g ai/ha, scale 0 to 100",10%
same,pest or weed control at 31 g/ha,"[3]; 31 g ai/ha, scale 0 to 100",10%
same,pest or weed control at 62 g/ha,[3]; [16],10%
same,pest or weed control at 125 g/ha,[3]; [17],20%
same,pest or weed control at 16 g/ha,"[4]; 16 g ai/ha, scale 0 to 100",5%
same,pest or weed control at 31 g/ha,"[4]; 31 g ai/ha, scale 0 to 100",5%
same,pest or weed control at 62 g/ha,[4]; [16],5%
same,pest or weed control at 125 g/ha,[4]; [17],10%
same,pest or weed control at 16 g/ha,"[5]; 16 g ai/ha, scale 0 to 100",60%
same,pest or weed control at 31 g/ha,"[5]; 31 g ai/ha, scale 0 to 100",60%
same,pest or weed control at 62 g/ha,[5]; [16],65%
same,pest or weed control at 125 g/ha,[5]; [17],75%
same,"Corn plant response rating (crop injury, 0 = no effect, 100 = complete kill) at 16 g/ha","corn (Zea mays); 16 g ai/ha, scale 0 to 100",5%
same,"Corn plant response rating (crop injury, 0 = no effect, 100 = complete kill) at 31 g/ha","corn (Zea mays); 31 g ai/ha, scale 0 to 100",10%
same,plant injury at 62 g/ha,corn (Zea mays); [16],10%
same,plant injury at 125 g/ha,corn (Zea mays); [17],20%
same,pest or weed control at 16 g/ha,"[6]; 16 g ai/ha, scale 0 to 100",10%
same,pest or weed control at 31 g/ha,"[6]; 31 g ai/ha, scale 0 to 100",10%
same,pest or weed control at 62 g/ha,[6]; [16],15%
same,pest or weed control at 125 g/ha,[6]; [17],15%
same,pest or weed control at 16 g/ha,"[7]; 16 g ai/ha, scale 0 to 100",10%
same,pest or weed control at 31 g/ha,"[7]; 31 g ai/ha, scale 0 to 100",10%
same,pest or weed control at 62 g/ha,[7]; [16],10%
same,pest or weed control at 125 g/ha,[7]; [17],25%
same,pest or weed control at 16 g/ha,"kochia (Kochia scoparia) [8]; 16 g ai/ha, scale 0 to 100",95%
same,pest or weed control at 31 g/ha,"kochia (Kochia scoparia) [8]; 31 g ai/ha, scale 0 to 100",95%
same,pest or weed control at 62 g/ha,kochia (Kochia scoparia) [8]; [16],100%
same,pest or weed control at 125 g/ha,kochia (Kochia scoparia) [8]; [17],100%
same,pest or weed control at 16 g/ha,"[9]; 16 g ai/ha, scale 0 to 100",65%
same,pest or weed control at 31 g/ha,"[9]; 31 g ai/ha, scale 0 to 100",80%
same,pest or weed control at 62 g/ha,[9]; [16],70%
same,pest or weed control at 125 g/ha,[9]; [17],85%
same,pest or weed control at 16 g/ha,"[10]; 16 g ai/ha, scale 0 to 100",75%
same,pest or weed control at 31 g/ha,"[10]; 31 g ai/ha, scale 0 to 100",65%
same,pest or weed control at 62 g/ha,[10]; [16],70%
same,pest or weed control at 125 g/ha,[10]; [17],70%
same,pest or weed control at 16 g/ha,"[11]; 16 g ai/ha, scale 0 to 100",0%
same,pest or weed control at 31 g/ha,"[11]; 31 g ai/ha, scale 0 to 100",5%
same,pest or weed control at 62 g/ha,[11]; [16],5%
same,pest or weed control at 125 g/ha,[11]; [17],10%
same,pest or weed control at 16 g/ha,"[12]; 16 g ai/ha, scale 0 to 100",0%
same,pest or weed control at 31 g/ha,"[12]; 31 g ai/ha, scale 0 to 100",0%
same,pest or weed control at 62 g/ha,[12]; [16],5%
same,pest or weed control at 125 g/ha,[12]; [17],5%
same,plant injury at 16 g/ha,"[13]; 16 g ai/ha, scale 0 to 100",50%
same,plant injury at 31 g/ha,"[13]; 31 g ai/ha, scale 0 to 100",50%
same,plant injury at 62 g/ha,[13]; [16],50%
same,plant injury at 125 g/ha,[13]; [17],60%
same,pest or weed control at 16 g/ha,"[14]; 16 g ai/ha, scale 0 to 100",0%
same,pest or weed control at 31 g/ha,"[14]; 31 g ai/ha, scale 0 to 100",5%
same,pest or weed control at 62 g/ha,[14]; [16],10%
same,pest or weed control at 125 g/ha,[14]; [17],5%
same,plant injury at 16 g/ha,"soybean (Glycine max); 16 g ai/ha, scale 0 to 100",25%
same,plant injury at 31 g/ha,"soybean (Glycine max); 31 g ai/ha, scale 0 to 100",65%
same,plant injury at 62 g/ha,soybean (Glycine max); [16],55%
same,plant injury at 125 g/ha,soybean (Glycine max); [17],60%
same,plant injury at 16 g/ha,"[15]; 16 g ai/ha, scale 0 to 100",0%
same,plant injury at 31 g/ha,"[15]; 31 g ai/ha, scale 0 to 100",0%
same,plant injury at 62 g/ha,"[15]; 62 g ai/ha, scale 0 to 100 (0 no effect, 100 complete control), read-out: Wheat plant response rating",5%
same,plant injury at 125 g/ha,[15]; [17],5%
